Tested on: NCI-H1876 complex spheroid growth, % test/control
Assay: Anticancer human tumor NCI-H1876 cell line growth inhibition [Asc];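 further: compound exposure lasted 7 days starting three days after seeding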;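 on viability, T/C: 100% = DMSO vehicle control wells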
Details: for IC50: curve of first compound; for viability, T/C: stronger effect = lower value; active means viability on the fitted dose curve at most 10% of control; inactive means the rest
Experimental: Multicellular complex tumor spheroid response to apoptosis pathway targeting inhibitors Alrizomadlin, Pelcitoclax, and Dasminapant in combination with a variety of drugs and investigational agents in selected tumor cell lines
The MDM2 inhibitor alrizomadlin, the Bcl-2/Bcl-xL inhibitor pelcitoclax, and the IAPs inhibitor dasminapant were evaluated both individually and in combination with standard of care and investigational anticancer small molecules within a complex spheroid model of solid tumors. . Complex spheroids include a stromal component modeled by human endothelial cells (HUVEC) and fibroblasts modeled by human mesenchymal stem cells (MSCs). The concentration ranges selected for each drug and investigational agent were based upon clinically achievable concentrations if the clinical Cmax of the agent was known.
Compounds. The drugs and investigational agents: alrizomadlin (APG-115; NSC831270), pelcitoclax (APG-1252; NSC835773), dasminapant (APG-1387;NSC834197), TAK-243 (NSC785004), copanlisib (NSC809693), olaparib (NSC753686), talazoparib (NSC767125), cobimetinib (NSC 768068), eltanexor (KPT-8602, NSC 794443), abemaciclib (NSC 768073), sotorasib (NSC818433), adagrasib (NSC 831453), MRTX-1133 (NSC 836407), Iadademestat (ORY1001, NSC 806812), and RMC-4630 (NSC839698), were obtained from the NCI Developmental Therapeutics Program Chemical Repository. The FDA-approved anticancer drug set is available from the Developmental Therapeutics Program at https://dtp.cancer.gov/organization/dscb/obtaining/available plates.htm. […] The stock solutions were prepared in dimethyl sulfoxide (DMSO, Sigma-Aldrich, St. Louis, MO, cat. D2650) at 800-fold the tested concentration and stored at -70 degrees C prior to their use. All drugs and investigational agents were tested over a range starting from a high concentration at or near the clinical Cmax and decreasing in half-log increments. If the clinical Cmax for an agent had not been determined, the highest concentration tested was 10 microM.
The patient-derived cancer (PDC) cell lines include five colon adenocarcinomas: 186277-243-T-J2-PDC, 616215-338-R-J1-PDC, 439559-082-T-J2-PDC, 463943-066-T-J2-PDC, and 519858-162-T-J1-PDC; three pancreatic carcinomas: 323965-272-R-J2-PDC, 521955-158-R6-J3-PDC, and 521955-158-R2-J5-PDC; two uterine sarcomas: 327498-152-R-J2-PDC and 993429-296-R-J1-PDC; two rhabdomyosarcomas: 755483-174-R-J1-PDC and 772245-204-R-J1-PDC; two soft tissue sarcomas: 126254-015-R-J1-PDC and 494315-158-R-J1-PDC; two malignant fibrous histiocytomas: 317291-083-R-J1-PDC and 596521-263-R-J1-PDC; two breast carcinomas: 171881-019-R-J1-PDC and 885512-296-R-J2-PDC; and one ovarian carcinoma: 6556581-035-R-J-PDC were obtained from the NCI PDMR, (https://pdmr.cancer.gov). The established cell lines HSSY-2 synovial sarcoma (RRID:CVCL 8719), SYO-1 synovial sarcoma (RRID:CVCL_7146), MPNST malignant peripheral neural sheath tumor were obtained from the Sloan Kettering Institute. The following established cell lines were purchased from the American Type Culture Collection (ATCC, Manassas, VA), Sor the received from the NCI repository:, PANC-1 pancreatic carcinoma (CRL-1469, RRID:CVCL_0480), OVCAR-5 ovarian carcinoma (RRID:CVCL_1628), OVCAR-8 ovarian carcinoma (RRID:CVCL_1629), , MCF-7 breast carcinoma (CRL-12584, RRID:CVCL_0031), MDA-MB-231 breast carcinoma (CRL-12532, RRID:CVCL_0062), NCI-H1876 small cell lung carcinoma (CRL-5902, RRID:CVCL_1503), NCI-H510A small cell lung carcinoma (HTB-184, RRID:CVCL_1565), NCI-H1417 (CRL-5869, RRID:CVCL_1469), and NCI-H196 small cell lung carcinoma (CRL-5823, RRID:CVCL_1509). Dr. Peter Houghton (Greehey Children's Cancer Research Institute, University of Texas Health Science Center, San Antonio, TX) provided Rh-18 rhabdomyosarcoma (RRID:CVCL_1659). Pooled donor human umbilical vein endothelial cells (HUVEC, Lonza, cat. CC-2519) and human mesenchymal stem cells (hMSC, Lonza, cat. PT-2501) were purchased from Lonza (Walkersville, MD).
Cell Culture. […]

NC(=O)C(=Cn1cnc(-c2cc(C(F)(F)F)cc(C(F)(F)F)c2)n1)c1cncnc1 + CNC(C)C(=O)NC1CN(S(=O)(=O)c2cccc(S(=O)(=O)N3CCC4CCC(C(=O)NC(c5ccccc5)c5ccccc5)N4C(=O)C(NC(=O)C(C)NC)C3)c2)CCC2CCC(C(=O)NC(c3ccccc3)c3ccccc3)N2C1=O
inactive: viability, T/C (second compound 0.00316 µM, first compound 0.000949 µM) 110% | viability, T/C (second compound 0.00316 µM, first compound 0.003 µM) 92.8% | viability, T/C (second compound 0.00316 µM, first compound 0.00949 µM) 91.9% | viability, T/C (second compound 0.00316 µM, first compound 0.03 µM) 83.8% | viability, T/C (second compound 0.00316 µM, first compound 0.0949 µM) 100% | viability, T/C (second compound 0.00316 µM, first compound 0.3 µM) 105% | viability, T/C (second compound 0.01 µM, first compound 0.000949 µM) 93.4% | viability, T/C (second compound 0.01 µM, first compound 0.003 µM) 90.6% | viability, T/C (second compound 0.01 µM, first compound 0.00949 µM) 96.6% | viability, T/C (second compound 0.01 µM, first compound 0.03 µM) 92.4% | viability, T/C (second compound 0.01 µM, first compound 0.0949 µM) 108% | viability, T/C (second compound 0.01 µM, first compound 0.3 µM) 98.2% | viability, T/C (second compound 0.0316 µM, first compound 0.000949 µM) 91.4% | viability, T/C (second compound 0.0316 µM, first compound 0.003 µM) 102% | viability, T/C (second compound 0.0316 µM, first compound 0.00949 µM) 92.4% | viability, T/C (second compound 0.0316 µM, first compound 0.03 µM) 92.5% | viability, T/C (second compound 0.0316 µM, first compound 0.0949 µM) 104% | viability, T/C (second compound 0.0316 µM, first compound 0.3 µM) 94% | viability, T/C (second compound 0.1 µM, first compound 0.000949 µM) 86.2% | viability, T/C (second compound 0.1 µM, first compound 0.003 µM) 93.9% | viability, T/C (second compound 0.1 µM, first compound 0.00949 µM) 93.5% | viability, T/C (second compound 0.1 µM, first compound 0.03 µM) 104% | viability, T/C (second compound 0.1 µM, first compound 0.0949 µM) 102% | viability, T/C (second compound 0.1 µM, first compound 0.3 µM) 103% | viability, T/C (second compound 0.316 µM, first compound 0.000949 µM) 95.6% | viability, T/C (second compound 0.316 µM, first compound 0.003 µM) 96.9% | viability, T/C (second compound 0.316 µM, first compound 0.00949 µM) 88.6% | viability, T/C (second compound 0.316 µM, first compound 0.03 µM) 90.1% | viability, T/C (second compound 0.316 µM, first compound 0.0949 µM) 100% | viability, T/C (second compound 0.316 µM, first compound 0.3 µM) 91.5% | viability, T/C (second compound 1 µM, first compound 0.000949 µM) 96.8% | viability, T/C (second compound 1 µM, first compound 0.003 µM) 93.6% | viability, T/C (second compound 1 µM, first compound 0.00949 µM) 102% | viability, T/C (second compound 1 µM, first compound 0.03 µM) 95.9% | viability, T/C (second compound 1 µM, first compound 0.0949 µM) 104% | viability, T/C (second compound 1 µM, first compound 0.3 µM) 86.3%
> 300 nM: IC50 (second compound 0.00316 µM) | IC50 (second compound 0.01 µM) | IC50 (second compound 0.0316 µM) | IC50 (second compound 0.1 µM) | IC50 (second compound 0.316 µM) | IC50 (second compound 1 µM)
